This note sets out measurements from ChEMBL document CHEMBL2375230 (J Med Chem, 2013).

For orientation: EC50 means the midpoint of the concentration-response curve. Usually solubility stands for how much of the substance goes into solution per volume. A lower solubility goes with a poorly soluble substance.

Structures are written as SMILES. Values after ≈ are worked out from the molar mass of the structure shown. Active and inactive are the calls of the source. The calls are words filed in the database; no cut-off is given here.

Data set [1] addresses T1, Methionine aminopeptidase 1 (Homo sapiens, UniProt P53582). Description: Inhibition of human methionine aminopeptidase 1 in presence of Mn2+.
Data set [2] concerns the target T1, Methionine aminopeptidase 1. Description: Inhibition of human methionine aminopeptidase 1 in presence of Co2+.
In data set [3] the target is Methionine aminopeptidase 2 (Homo sapiens, UniProt P50579). The data set can be described thus: Inhibition of human methionine aminopeptidase 2 in presence of Mn2+.
Methionine aminopeptidase 2, sequence (P50579 whole entry): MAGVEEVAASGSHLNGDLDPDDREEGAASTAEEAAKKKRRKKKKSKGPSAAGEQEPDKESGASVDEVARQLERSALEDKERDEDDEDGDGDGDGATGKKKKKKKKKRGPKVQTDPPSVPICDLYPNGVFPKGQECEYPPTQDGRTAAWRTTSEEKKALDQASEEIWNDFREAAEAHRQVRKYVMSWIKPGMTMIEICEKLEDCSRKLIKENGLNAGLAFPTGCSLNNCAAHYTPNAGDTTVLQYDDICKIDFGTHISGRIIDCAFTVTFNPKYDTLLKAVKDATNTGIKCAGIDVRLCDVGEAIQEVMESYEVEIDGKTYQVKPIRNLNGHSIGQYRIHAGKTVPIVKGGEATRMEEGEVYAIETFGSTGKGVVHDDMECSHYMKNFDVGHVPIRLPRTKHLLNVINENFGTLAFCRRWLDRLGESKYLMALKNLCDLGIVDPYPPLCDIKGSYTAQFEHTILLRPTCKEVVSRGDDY
In data set [4] the test system is HUVEC. The data set can be described thus: Antiproliferative activity against HUVEC after 30 hrs by [3H]-thymidine incorporation assay. Type of data set: functional, cell-based, Homo sapiens. For orientation: Incorporation of labelled thymidine or its analogues reports DNA synthesis.
Data set [5] has as its system HUVEC. Description: Antiproliferative activity against HUVEC at 30 uM after 30 hrs by [3H]-thymidine incorporation assay relative to control. Type of data set: functional, Homo sapiens.
The nature of data set [6]: Antiproliferative activity against HDFa cells after 30 hrs by [3H]-thymidine incorporation assay. In kind it is functional, cell-based, Homo sapiens.
Data set [7] deals with HeLa. Description: Antiproliferative activity against human HeLa cells after 30 hrs by [3H]-thymidine incorporation assay. In kind it is functional, cell-based.
Data set [8] in a line: Solubility of the compound. In kind it is physicochemical.
Data set [9] deals with HUVEC. The data set can be described thus: Cytotoxicity against HUVEC at 10 uM after 24 hrs. Particulars: human. Type of data set: cell-based.
The subject of a further data set is HDFa. Description: Antiproliferative activity against HDFa cells at 10 uM after 30 hrs by [3H]-thymidine incorporation assay. Type of data set: functional, cell-based. The settings on record: Homo sapiens.
Data set [10] can be described thus: Antiproliferative activity against HDFa cells at 30 uM after 30 hrs by [3H]-thymidine incorporation assay relative to control. Type of data set: functional, Homo sapiens.
Data set [11] has as its target T1, Methionine aminopeptidase 1. Description: Inhibition of human methionine aminopeptidase 1 in presence of Zn2+.
The target is the same in data set [12]. The data set can be described thus: Inhibition of human methionine aminopeptidase 1 up to 250 uM.
The test system of data set [13] is HeLa. The data set can be described thus: Inhibition of methionine aminopeptidase in human HeLa cells assessed as increase in ratio of unprocessed 14-3-3gamma to total 14-3-3gamma at 0.1 uM after 24 hrs by immunoblotting analysis relative to DMSO-treated control. Type of data set: cell-based. For orientation: In western blotting, separated proteins are transferred to a membrane and probed.

The test system of data set [14] is HUVEC. Description: Inhibition of methionine aminopeptidase in HUVEC assessed as increase in unprocessed 14-3-3gamma level at 0.1 to 10 uM by immunoblotting analysis. In kind it is cell-based. Particulars: Homo sapiens.
For another data set, the species on record is Homo sapiens. The data set can be described thus: Inhibition of methionine aminopeptidase in HUVEC assessed as increase in ratio of unprocessed 14-3-3gamma to total 14-3-3gamma at 0.1 uM after 24 hrs by immunoblotting analysis relative to control.
A further data set has as its system HEK293. Description: Inhibition of methionine aminopeptidase in HEK293 cells assessed as increase in ratio of unprocessed 14-3-3gamma to total 14-3-3gamma at 0.1 uM after 24 hrs by immunoblotting analysis relative to DMSO-treated control. In kind it is cell-based. Particulars: Homo sapiens.
The test system of a further data set is E6-1. The data set can be described thus: Inhibition of methionine aminopeptidase in human Jurkat E6-1 cells assessed as increase in ratio of unprocessed 14-3-3gamma to total 14-3-3gamma at 0.1 uM after 24 hrs by immunoblotting analysis relative to DMSO-treated control. Type of data set: cell-based.
The subject of data set [15] is HUVEC. Description: Inhibition of methionine aminopeptidase in HUVEC assessed as increase in unprocessed 14-3-3gamma level at 0.1 to 10 uM by immunoblotting analysis in presence of cycloheximide. Type of data set: cell-based. The settings on record: Homo sapiens.
For data set [16], the system named is HUVEC. Description: Inhibition of methionine aminopeptidase in HUVEC assessed as accumulation of unprocessed 14-3-3gamma at 10 nM after 24 hrs by immunoblotting analysis. Type of data set: cell-based. Particulars: Homo sapiens.
The next data set has as its system PC-3. The data set can be described thus: Inhibition of methionine aminopeptidase in human PC3 cells assessed as increase in ratio of unprocessed 14-3-3gamma to total 14-3-3gamma at 0.1 uM after 24 hrs by immunoblotting analysis relative to DMSO-treated control. Type of data set: cell-based.
The next data set concerns MCF7. The data set can be described thus: Inhibition of methionine aminopeptidase in human MCF7 cells assessed as increase in ratio of unprocessed 14-3-3gamma to total 14-3-3gamma at 0.1 uM after 24 hrs by immunoblotting analysis relative to DMSO-treated control. Type of data set: cell-based.
Data set [17] deals with HUVEC. The data set can be described thus: Inhibition of methionine aminopeptidase in HUVEC assessed as accumulation of unprocessed 14-3-3gamma at 1 nM after 24 hrs by immunoblotting analysis. In kind it is cell-based. Particulars: Homo sapiens.
In data set [18] the target is T1, Methionine aminopeptidase 1. Description: Inhibition of methionine aminopeptidase 1 in HEK293 cells expressing 3xFLAG-tagged BTF3 assessed as increase in [35S]-Met in solution at 100 nM after 30 mins by scintillation counting analysis. Type of data set: cell-based.

With `c1ccc(-c2nc(N3CCOCC3)c3ccccc3n2)nc1`, the results for the EC50 in data set [1], in data set [2] and in [3] were 41 µM, 0.049 µM and over 100 µM, respectively.

Regarding `Cc1nc(-c2ccccn2)nc(NCCc2ccccc2)c1Cl`, the EC50 came to 11 µM in the data set on HUVEC [4] (Homo sapiens, HUVEC); 3.6 µM in [6] (Homo sapiens, HDFa); 7.1 µM with HeLa [7] (Homo sapiens, HeLa). Further, the Activity in the data set with HUVEC [5] is over 90%. In addition, the solubility in data set [8] came out at 90 µM (≈ 29.2 µg/mL).

Regarding `CC(C)(C)OC(=O)Nc1cccnc1C(=O)Nc1nccs1`, the EC50 with HUVEC [4] (Homo sapiens, HUVEC) came out at 2 µM; in the data set with HUVEC [4] (huvec), 1.5 µM; in [6] (Homo sapiens, HDFa) it was 0.79 µM; in data set [6] (hdfa) it was 0.65 µM; with HeLa [7] (Homo sapiens, HeLa), 2.3 µM; in the data set on HeLa [7] (hela), 2 µM.

For `CN1CCN(c2cc(-c3ccccn3)nc3ccccc23)CC1`, the EC50 in data set [1] was over 100 µM; in data set [2], 0.87 µM; in data set [3], over 100 µM.

Regarding `Cc1nc(-c2ccccn2)nc(NCCNc2ccc(C(F)(F)F)cn2)c1Cl`, the concentration giving a half-maximal response (EC50) in the data set with HUVEC [4] (Homo sapiens, HUVEC) is 4.3 µM; in data set [6] (Homo sapiens, HDFa), 1.9 µM; in the data set with HeLa [7] (Homo sapiens, HeLa), 10 µM. Moreover, the solubility in data set [8] was determined as 40 µM (≈ 16.4 µg/mL).

For the molecule `c1ccc(CCNc2nc(-c3ccccn3)nc3ccccc23)cc1`, the figures for the concentration giving a half-maximal response (EC50) in data set [1], in data set [2] and in data set [3] were 24 µM, 0.94 µM and over 100 µM, respectively.

Consider `Cc1nc(-c2ccc(Cl)cn2)nc(NC[C@@H](NCCCCc2ccccc2)c2ccccc2)c1Cl`, for which the Activity result with HUVEC [9] is listed as “Toxic”. Moreover, the EC50 in [6] (Homo sapiens, HDFa) was 0.76 µM; with HeLa [7] (Homo sapiens, HeLa), 0.97 µM. The solubility in data set [8] is 40 µM (≈ 20.3 µg/mL).

Turning to `c1ccc(-c2nc(N3CCCCC3)c3ccccc3n2)nc1`, the half-maximal effective concentration (EC50) is 7.6 µM in data set [1], 0.11 µM in data set [2] and over 100 µM in [3].

As to `c1ccc(-c2ccccn2)nc1`, the result in the data set with HDFa was inactive. The same molecule came in with an EC50 in data set [6] (Homo sapiens, HDFa) of 10 µM. In addition, the Activity in data set [10] came to 94%.

For the molecule `c1ccc2[nH]c(-c3cscn3)nc2c1` [THIABENDAZOLE], the EC50 in data set [1] is over 100 µM; in [2], 3.4 µM; in the data set with HUVEC [4] (Homo sapiens, HUVEC) it was over 250 µM; in data set [11], over 250 µM; in data set [6] (Homo sapiens, HDFa), over 250 µM. The inhibition entry in data set [12] was “inactive”.

For the molecule `c1ccc(-c2cc(N3CCOCC3)c3ccccc3n2)nc1`, the EC50 in data set [1] is over 100 µM; in data set [2] it was 0.41 µM; in [3], over 100 µM.

On to `CCCCCCCCCCCCCC(=O)O[C@H]1CC[C@H](NC(=O)[C@H](OC)[C@H](O)[C@@H](O)[C@H](O)/C=C/C(C)C)C(=O)NC1`, for which the Ratio turned out to be 2.3 with HeLa [13], 8.1 in the data set filed under Homo sapiens, 2.1 in the data set on HEK293 and 1.4 in the data set on E6-1. Further, the inhibition entry with HUVEC [14] and in the data set on HUVEC [16] was “Active” in each case. In addition, the inhibition entry in the data set on HUVEC [15] is “inactive”.

With `Clc1nc(-c2ccccn2)nc2ccccc12`, the results for the concentration for a half-maximal effect (EC50) in data set [1], in [2] and in [3] were over 100 µM, 1.5 µM and over 100 µM, respectively.

As for `CCCCCCCCCCCCCC(=O)O[C@H]1CC[C@H](NC(=O)[C@H](OC)[C@H](O)[C@@H](O)[C@H](O)/C=C/C(C)C)C(=O)N(C)C1`, the Ratio in the data set with PC-3 came out at 2.1; in the data set with MCF7, 2.6.

Consider `c1ccc(NCCNc2nc(-c3ccccn3)nc3ccccc23)cc1`, for which the EC50 in data set [1] is over 100 µM; in data set [2], 1.6 µM; in [3], over 300 µM.

Take `c1ccc(-c2cc(N3CCCCC3)c3ccccc3n2)nc1`: the EC50 was over 100 µM in [1], 0.39 µM in data set [2] and over 100 µM in data set [3].

In the case of `CO[C@@H]1[C@H](OC(=O)NC(=O)CCl)CC[C@]2(CO2)[C@H]1[C@@]1(C)O[C@@H]1CC=C(C)C`, the inhibition entry with HUVEC [17] and with HUVEC [14] was “Active” in each case. In addition, the inhibition result (in data set [18]; with HUVEC [15]) was “inactive” throughout.
